Source: the NIST ThermoML archive (doi:10.1021/je060271a)

Conditions: 283.14 K, Liquid, Vibrating tube method

CCCCCCC(=O)OCC(COC(=O)CCCCCC)(COC(=O)CCCCCC)COC(=O)CCCCCC [pentaerythritol tetraheptanoate]
Conditions | mass density [kg/m3]
8943.7 kPa | 991
8967.5 kPa | 991
8987.8 kPa | 991
9012.5 kPa | 991
9033.2 kPa | 991
9051.6 kPa | 991
9069.4 kPa | 991.1
9088.3 kPa | 991.2
9103.3 kPa | 991.1
9118.5 kPa | 991
9136.4 kPa | 991.1
9152.5 kPa | 991.2
9168 kPa | 991
9183.2 kPa | 991.1
9198.7 kPa | 991.1
9217 kPa | 991.1
9232.5 kPa | 991.1
9248.5 kPa | 991.2
9267.1 kPa | 991.1
9282.6 kPa | 991.2
9298.5 kPa | 991.2
9317.3 kPa | 991.3
9333.1 kPa | 991.2
9348.8 kPa | 991.2
9368.1 kPa | 991.1
9382 kPa | 991.2
9401.3 kPa | 991.2
9417.4 kPa | 991.2
9436.7 kPa | 991.3
9452.9 kPa | 991.4
9468.9 kPa | 991.2
9485.1 kPa | 991.2
9504.9 kPa | 991.3
9521.4 kPa | 991.3
9538.2 kPa | 991.1
9557.6 kPa | 991.3
9574.2 kPa | 991.5
9594.2 kPa | 991.3
9610.7 kPa | 991.3
9644.3 kPa | 991.4
9664.8 kPa | 991.3
9681.7 kPa | 991.4
9698.7 kPa | 991.4
9719.2 kPa | 991.4
9736.6 kPa | 991.4
9771.3 kPa | 991.5
9792.1 kPa | 991.4
9809.7 kPa | 991.5
9845.5 kPa | 991.4
9866.9 kPa | 991.4
9884.8 kPa | 991.4
9902.5 kPa | 991.6
9923.9 kPa | 991.5
9942.1 kPa | 991.6
9960.2 kPa | 991.5
9978.3 kPa | 991.6
9999.8 kPa | 991.7
10018 kPa | 991.6
10037 kPa | 991.5
10059 kPa | 991.6
10078 kPa | 991.6
10096 kPa | 991.5
10114 kPa | 991.8
10137 kPa | 991.6
10156 kPa | 991.6
10174 kPa | 991.6
10197 kPa | 991.7
10216 kPa | 991.6
10239 kPa | 991.8
10258 kPa | 991.7
10277 kPa | 991.6
10296 kPa | 991.7
10319 kPa | 991.7
10339 kPa | 991.8
10359 kPa | 991.8
10382 kPa | 991.8
10401 kPa | 991.8
10425 kPa | 991.8
10445 kPa | 991.9
10465 kPa | 991.8
10485 kPa | 991.9
10509 kPa | 991.7
10529 kPa | 991.9
10549 kPa | 991.9
10574 kPa | 991.8
10595 kPa | 992
10615 kPa | 991.9
10640 kPa | 991.9
10661 kPa | 991.9
10682 kPa | 991.9
10706 kPa | 991.9
10727 kPa | 992
10748 kPa | 991.9
10770 kPa | 992
10795 kPa | 992
10816 kPa | 991.9
10842 kPa | 991.9
10863 kPa | 992
10886 kPa | 992.1
10909 kPa | 992
10931 kPa | 992
10957 kPa | 992.1
10979 kPa | 992
11005 kPa | 992.2
11028 kPa | 992.2
11050 kPa | 992.2
11072 kPa | 992
11100 kPa | 992.1
11122 kPa | 992.2
11145 kPa | 992.2
11173 kPa | 992.1
11197 kPa | 992.2
